Laboratory results as given in patent US20250136634A1, “CAP ANALOG AND USE THEREOF” (SHANGHAI HONGENE BIOTECH CORPORATION, priority 2021, published 2025).

Target: T1, IFIT1 (Homo sapiens, UniProt P09914)
T1 construct: endogenous in cells; host or cells: Hela cells (ATCC CCL-2)
T1 sequence (P09914 1-478): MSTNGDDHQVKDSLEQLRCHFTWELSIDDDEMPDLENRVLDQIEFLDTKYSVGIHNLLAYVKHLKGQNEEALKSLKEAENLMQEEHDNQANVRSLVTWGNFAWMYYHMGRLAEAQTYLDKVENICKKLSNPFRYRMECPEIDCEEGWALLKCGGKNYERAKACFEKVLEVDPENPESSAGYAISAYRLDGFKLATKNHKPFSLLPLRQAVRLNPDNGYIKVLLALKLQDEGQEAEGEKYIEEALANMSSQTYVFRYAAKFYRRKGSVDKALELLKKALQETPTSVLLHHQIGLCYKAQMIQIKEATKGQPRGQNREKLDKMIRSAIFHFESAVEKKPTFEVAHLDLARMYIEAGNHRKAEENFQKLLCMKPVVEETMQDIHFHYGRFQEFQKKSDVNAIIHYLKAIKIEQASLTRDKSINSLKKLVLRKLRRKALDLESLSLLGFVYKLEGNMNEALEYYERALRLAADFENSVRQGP
Assay: Binding ability of mRNA to IFIT1, RNA co-immunoprecipitation and qPCR in Hela cells
Conditions: Example 2; 2 ug mRNA/well, cells collected after 24 hours, relative to ^m7GpppApG cap, mean±SD
Description: In this example, Hela cells (ATCC CCL-2) were transfected with luciferase mRNAs (Gaussia luciferase) comprising various initial cap structures (the initial cap nucleotide structures comprised are: ^m7GpppApG, ^m7GpppA2′Ome pG, ^m7G3′OmepppA2′O-ethylpG, ^m7G2′OmepppA2′O-ethylpG, ^m7G3′Omeppp A2′O-MOEpG, ^m7G2′O-mepppA2′O-MOEpG, ^m7Gppp(N6-methyladenine)2′O-MOEpG, ^m7G2′OmepppC2′O-ethylpC, ^m7G3′OmepppA2′O-MOEpU), and collected after 24 hours. The intracellular proteins RIG-I and IFIT1 were co-precipitated with the RNAs to which they bound by RNA co-immunoprecipation. The mRNAs were subjected to reverse transcription and real-time quantitative PCR, and the relative abundance of the mRNAs is proportional to their RIG-I and IFIT1 binding ability.
(§1) Hela cells were seeded at a cell density of 4×10^5/well in 6-well plates, and transfected with mRNA at 2 ug mRNA/well when the cell density reached about 80% using Lipofectamine MessengerMAX Transfection Reagent (Invitrogen) according to the transfection steps in the instruction. The cells were collected after 24 hours, and incubated at RT for 10 minutes after the addition of fixative solution. The reaction was then terminated by adding glycine at a suitable concentration, and the cells were collected by centrifugation. Appropriate amount of lysis solution was added to the cells. The mixture was incubated on ice for 30 minutes and centrifuged to collect supernatant. Appropriate amount of (2-4 ng) anti-RIG-I and IFIT1 antibodies (Abcam) were added to the supernatant, and the mixture was incubated overnight at 4° C. on a shaker, and then 20 ul Protein A/G magnetic beads were added and incubated for 2 hours at 4° C. on a shaker. The beads were rinsed using magnetic grate for 5 minutes and repeated 3 times. After that, 1 mL TRIzol reagent was added to the magnetic beads to extract RNAs which were then reverse transcribed into cDNAs. The expression of related genes was detected using real-time quantitative fluorescent PCR with B-actin as the internal reference. The detection of each gene was repeated 3 times, and the result of the expression of each gene is expressed as the relative value to the result of ^m7GpppApG cap.
The intracellular proteins RIG-I and IFIT1 were co-precipitated with the RNAs to which they bound by RNA co-immunoprecipitation. The mRNAs were subjected to reverse transcription and real-time quantitative PCR, and the relative abundance of the mRNAs is proportional to their RIG-I and IFIT1 binding ability.
as §1, with “(Invitrogen) as the transfection reagent” for “(Invitrogen)”, “was” for “was then”

Point of comparison: ^m7G2′OmepppA2′O-ethylpG, “Relative binding ability to IFIT1” value 0.84 ± 0.08. Against it:
- ^m7G2′OmepppA2′O-MOEpG — lower, 0.66 ± 0.02
- ^m7G2′OmepppC2′O-ethylpC — within error, 0.91 ± 0.05
- ^m7G3′OmepppA2′O-MOEpG — within error, 0.76 ± 0.04
- ^m7G3′OmepppA2′O-MOEpU — higher, 1.19 ± 0.07
- ^m7G3′OmepppA2′O-ethylpG — within error, 0.89 ± 0.13
- ^m7Gppp(N6-methyladenine)2′O-MOEpG — within error, 0.79 ± 0.01
- ^m7GpppA2′Ome pG [reference compound] — within error, 0.88 ± 0.01
- ^m7GpppApG [reference compound] — higher, 1 ± 0.04

Same assay, conditions: Example 3 (IVT at 50° C.); 2 ug mRNA/well, cells collected after 24 hours, relative to ^m7GpppApG cap, mean±SD

Point of comparison: ^m7GAlpha-L-LNApppA2′O-ethyl pG, “Relative binding ability to IFIT1” value 0.55 ± 0.07. Against it:
- ^m7GBeta-D-LNApppA2′O-MOEpG — within error, 0.49 ± 0.04
- ^m7GpppA2′Ome pG [reference compound] — higher, 0.84 ± 0.09
- ^m7GpppApG [reference compound] — higher, 1 ± 0.19
